Here are results for two molecules from patent US7795244B2, “Penem prodrugs” (priority 2006, dated 2010).

Data set [1] can be described thus: Liver S9 conversion efficiency. Type of data set: in vitro ADME, human. Particulars: liver S9 experiments.
Data set [2] in a line: Stability in the presence of porcine pancrelipase (PPE). Type of data set: in vitro ADME. To be noted: pig, porcine pancrelipase (ku-zyme HP) in phosphate buffer, 50 μM substrate, pH 7.4, 37° C.
Data set [3] has as its system porcine pancrelipase (PPE). The data set is described as above. The class given is in vitro ADME.
A further data set can be described thus: Equilibrium solubility. The class given is physicochemical. To be noted: aqueous buffer, thermodynamic from solid, 25 mM phosphate buffer (pH 5), ambient temperature / 25° C. Here is the method: Vials containing excess prodrug in phosphate buffer were rotated for up to 48 hours. After the equilibrium period, samples were pulled, filtered through 0.45 μm Gelman Acrodisc Nylon syringe filter and analyzed for drug concentration using HPLC. The HPLC conditions were: Column. C18, SymmetryShield RP, Waters, 4.6×150 mm, 3.5 micron; Mobile phase A: Acetonitrile; Mobile phase B: 0.1% TFA in water; Flow rate, 1 mL/min; Run Time: 30 min Inj. vol. 20 μL; Detection: 210 nm; Dissolving solvent: Acetonitrile/water (50:50 v:v).

A further data set has as its system H. influenzae BLNAR. As to the kind of experiment: Gerbil otitis media model. Particulars: Gerbil otitis media vs. H. influenzae BLNAR, oral TID for two days from 18 h post-infection, bacterial levels in middle ear fluid day four, repeat experiments.
For the next data set, the system named is K. pneumoniae 6485. As to the kind of experiment: Murine acute systemic infection model. Particulars: Murine acute systemic infection vs. K. pneumoniae 6485; oral BID; survival day four post-infection; repeat experiments.
In data set [4] the test system is S. pneumoniae 1095. As to the kind of experiment: Murine acute systemic infection model. Particulars: Murine acute systemic infection vs. S. pneumoniae 1095; oral BID; survival day four post-infection; repeat experiments.
In data set [5] the test system is S. pneumoniae 1095. Kind of data set: Murine respiratory tract infection model. Particulars: Murine respiratory tract infection vs. S. pneumoniae 1095; oral BID for two days from 18 h post-infection; survival day ten; repeat experiments.
Data set [6] is described as follows: Stability in human intestinal juice (HIJ). Particulars: pooled human intestinal juice (4 subjects), buffered, pH 7.4.
Data set [7] has as its system Staphylococcus saprophyticus. Kind of data set: MIC90 in vitro activity of sulopenem. The class given is cell-based.
The subject of a further data set is Alloiococcus otitidis. As to the kind of experiment: MIC90 in vitro activity of sulopenem. Type of data set: cell-based. Particulars: Alloiococcus otitis.
In data set [8] the test system is Streptococcus pyogenes (Group A). Kind of data set: MIC90 in vitro activity of sulopenem. Type of data set: cell-based.
Data set [9] has as its system Streptococcus bovis (Group D). As to the kind of experiment: MIC90 in vitro activity of sulopenem. To be noted: Streptococcus equinus. The class given is cell-based.
The subject of data set [10] is Viridans Streptococcus group. Kind of data set: MIC90 in vitro activity of sulopenem. Type of data set: cell-based.
For data set [11], the system named is Streptococcus pneumoniae penicillin-susceptible. As to the kind of experiment: MIC90 in vitro activity of sulopenem. Type of data set: cell-based.
The test system of data set [12] is Streptococcus pneumoniae penicillin-intermediate. As to the kind of experiment: MIC90 in vitro activity of sulopenem. The class given is cell-based.
For data set [13], the system named is Streptococcus pneumoniae penicillin-resistant. Kind of data set: MIC90 in vitro activity of sulopenem. The class given is cell-based.
For data set [14], the system named is Streptococcus pneumoniae levofloxacin-resistant. Kind of data set: MIC90 in vitro activity of sulopenem. The class given is cell-based.
The subject of another data set is Klebsiella oxytoca. As to the kind of experiment: MIC90 in vitro activity of sulopenem. Type of data set: cell-based. The protocol:
(§1) The in vitro activity of sulopenem (the parent acid (5R,6S)-6-[(1R)-1-hydroxyethyl]-7-oxo-3-[[(1R3S)-tetrahydro-1-oxido-3thienyl]thio]4-thia-1-azabicyclo[3.2.0]hept-2-ene-2-carboxylic acid) was evaluated against pathogens involved in community and hospital infections, as summarized in Table 1. .

The test system of another data set is Klebsiella pneumoniae. Kind of data set: MIC90 in vitro activity of sulopenem. The class given is cell-based. The protocol:
as §1

The subject of a further data set is Listeria monocytogenes. Kind of data set: MIC90 in vitro activity of sulopenem. Type of data set: cell-based. Here is the method:
as §1

A further data set has as its system Prevotella spp. As to the kind of experiment: MIC90 in vitro activity of sulopenem. Type of data set: cell-based. The protocol:
as §1

For a further data set, the system named is Salmonella/Shigella. Kind of data set: MIC90 in vitro activity of sulopenem. Type of data set: cell-based. The protocol: as §1
The subject of data set [15] is Staphylococcus aureus oxacillin-S. Kind of data set: MIC90 in vitro activity of sulopenem. Type of data set: cell-based. The protocol:
as §1

Data set [16] has as its system Streptococcus agalactiae (Group B). Kind of data set: MIC90 in vitro activity of sulopenem. The class given is cell-based. Here is the method:
as §1

The subject of data set [17] is Corynebacterium spp (not C. jeikeium). Kind of data set: MIC90 in vitro activity of sulopenem. The class given is cell-based.
In another data set the test system is Citrobacter diversus. Kind of data set: MIC90 in vitro activity of sulopenem. The class given is cell-based. To be noted: Citrobacter koseri.
For the next data set, the system named is Citrobacter freundii. As to the kind of experiment: MIC90 in vitro activity of sulopenem. The class given is cell-based.
For the next data set, the system named is Enterobacter aerogenes. As to the kind of experiment: MIC90 in vitro activity of sulopenem. To be noted: Klebsiella aerogenes. Type of data set: cell-based.
Another data set deals with Enterobacter cloacae. Kind of data set: MIC90 in vitro activity of sulopenem. The class given is cell-based.
For another data set, the system named is Escherichia coli. Kind of data set: MIC90 in vitro activity of sulopenem. The class given is cell-based.
The test system of data set [18] is Klebsiella pneumoniae ESBL+. Kind of data set: MIC90 in vitro activity of sulopenem. Type of data set: cell-based.
A further data set relates to Morganella morganii. Kind of data set: MIC90 in vitro activity of sulopenem. Type of data set: cell-based.
The subject of a further data set is Proteus mirabilis. Kind of data set: MIC90 in vitro activity of sulopenem. Type of data set: cell-based.
The subject of data set [19] is Haemophilus influenzae β-lactamase−. As to the kind of experiment: MIC90 in vitro activity of sulopenem. Type of data set: cell-based.
For data set [20], the system named is Haemophilus influenzae β-lactamase+. Kind of data set: MIC90 in vitro activity of sulopenem. Type of data set: cell-based.
In data set [21] the test system is Moraxella catarrhalis β-lactamase−. As to the kind of experiment: MIC90 in vitro activity of sulopenem. The class given is cell-based.
Data set [22] concerns Moraxella catarrhelis β-lactamase+. Kind of data set: MIC90 in vitro activity of sulopenem. The class given is cell-based.
In a further data set the test system is Legionella pneumophila. As to the kind of experiment: microbe, parasite or virus in culture. Type of data set: cell-based.
The subject of a further data set is Neisseria meningitides. Kind of data set: MIC90 in vitro activity of sulopenem. The class given is cell-based.
The next data set deals with Becteroides fragilis. Kind of data set: MIC90 in vitro activity of sulopenem. The class given is cell-based.
The next data set concerns Clostridium perfringens. As to the kind of experiment: microbe, parasite or virus in culture. The class given is cell-based.
The conditions of data set [23]: in vivo, po; cited from earlier work.

Structures are written as SMILES. In brackets after ≈: the same amount, converted by molar mass. Several values for one entry are separate records, joined by “and”; a condition that tells them apart may be missing. Equal values may be shown once.

In the case of `CCC(CC)C(=O)OCOC(=O)C1=C(S[C@H]2CC[S@@+]([O-])C2)S[C@@H]2[C@@H]([C@@H](C)O)C(=O)N12` [Compound 1, (2-Ethyl-1-oxobutoxy)methyl (5R,6S)-6-[(1R)-1-hydroxyethyl]-7-oxo-3-[[(1R,3S)-tetrahydro-1-oxido-3-thienyl]thio]-4-thia-1-azabicyclo[3.2.0]hept-2-ene-2-carboxylate], the “intrinsic clearance in human intestinal juice (in words)” value is reported as “relatively low intrinsic clearance”. The “conversion to sulopenem (in words)” value in data set [1] is on record as “fully converted to sulopenem”. The half-life (in general, the time in which the quantity being followed falls by half) at 50 µM in [2] (pH 7.4, ku-zyme Lot 1) stood at 11.7 ± 3.8 min. Besides, in data set [2] (pH 7.4, ku-zyme lot 2), the half-life at 50 µM was 17.9 min. Further, the “PPE half-life (in words)” value in data set [3] is listed as “relatively long PPE half-life”. Also, the solubility (usually the dissolved amount per volume that the medium holds) in “Equilibrium solubility” turned out to be 1210 µg/mL (≈ 2530 µM). Further, under “human, pH 7.4”, the “HIJ Clint (avg)” value is listed as 0.07 mL/min. Further, the ED50 – broadly, the dose that gives a 50% effect, or the effect in half of the subjects – in the data set on H. influenzae BLNAR worked out at 4.5 mg/kg. In the data set with H. influenzae BLNAR (Haemophilus influenzae, in Meriones unguiculatus, po), the 50% effect level (ED50) was put at a dose of 8.7 mg/kg. Moreover, the PD50 with K. pneumoniae 6485 is 88.6 mg/kg and 63.4 mg/kg. In the data set with S. pneumoniae 1095 [4], the PD50 is 12.5 mg/kg and 6.3 mg/kg. For the same molecule, in the data set with S. pneumoniae 1095 [5], the PD50 was 16.4 mg/kg and 12.5 mg/kg and 9.5 mg/kg. Moreover, the Km – broadly, the concentration of substrate that gives half-maximal velocity – in data set [6] turned out to be 91 µM.
Turning to `C[C@@H](O)[C@H]1C(=O)N2C(C(=O)O)=C(S[C@H]3CC[S@@+]([O-])C3)S[C@H]12` [Sulopenem, (5R,6S)-6-[(1R)-1-hydroxyethyl]-7-oxo-3-[[(1R,3S)-tetrahydro-1-oxido-3-thienyl]thio]-4-thia-1-azabicyclo[3,2.0]hept-2-ene-2-carboxylic acid], the MIC90 in [7] was 0.5 µg/mL (≈ 1.43 µM); in the data set with Alloiococcus otitidis, 1 µg/mL (≈ 2.86 µM); in data set [8] it was 0.03 µg/mL (≈ 0.0858 µM); in [9] it was 0.06 µg/mL (≈ 0.172 µM); in data set [10] it was 0.25 µg/mL (≈ 0.715 µM); in [11], 0.03 µg/mL (≈ 0.0858 µM). In addition, the MIC90 in [12] was 0.25 µg/mL (≈ 0.715 µM); in data set [13], 1 µg/mL (≈ 2.86 µM); in [14], 0.5 µg/mL (≈ 1.43 µM); with Klebsiella oxytoca, 0.125 µg/mL (≈ 0.358 µM); against Klebsiella pneumoniae it was 0.125 µg/mL (≈ 0.358 µM); against Listeria monocytogenes, 0.125 µg/mL (≈ 0.358 µM). Also, the MIC90 with Prevotella spp came out at 0.125 µg/mL (≈ 0.358 µM); with Salmonella/Shigella, 0.125 µg/mL (≈ 0.358 µM); in [15], 0.125 µg/mL (≈ 0.358 µM); in data set [16] it was 0.125 µg/mL (≈ 0.358 µM); in data set [17], 2 µg/mL (≈ 5.72 µM); in the data set with Citrobacter diversus, 0.06 µg/mL (≈ 0.172 µM). Besides, the MIC90 with Citrobacter freundii was 0.25 µg/mL (≈ 0.715 µM); against Enterobacter aerogenes, 0.5 µg/mL (≈ 1.43 µM); in the data set with Enterobacter cloacae it was 1 µg/mL (≈ 2.86 µM); against Escherichia coli, 0.06 µg/mL (≈ 0.172 µM); in [18] it was 0.25 µg/mL (≈ 0.715 µM); in the data set with Morganella morganii it was 2 µg/mL (≈ 5.72 µM). Besides, the MIC90 against Proteus mirabilis was 0.5 µg/mL (≈ 1.43 µM); in data set [19], 0.25 µg/mL (≈ 0.715 µM); in [20], 0.5 µg/mL (≈ 1.43 µM); in data set [21] it was 0.03 µg/mL (≈ 0.0858 µM); in data set [22], 0.125 µg/mL (≈ 0.358 µM); with Legionella pneumophila, 0.06 µg/mL (≈ 0.172 µM). Moreover, the MIC90 came out at 0.06 µg/mL (≈ 0.172 µM) against Neisseria meningitides, 0.5 µg/mL (≈ 1.43 µM) in the data set with Becteroides fragilis and 0.06 µg/mL (≈ 0.172 µM) in the data set with Clostridium perfringens. Besides, in data set [23], the “oral bioavailability (in words)” value is recorded as “not appreciably orally bioavailable”.
